In US4347319A, “Microbiological epoxidation process” (priority 1980, dated 1982):
Read-outs that look alike come from different tables or passages of the source.

Experiments:
Format in all cases: cell-based
[1] = tested on: Methylomonas rosaceus (CRL M10P) NRRL B-11,212
Experimental: The pH of the nutrient medium was adjusted to 7.0 by the addition of acid or base and 50 ml samples of the nutrient medium were charged into a plurality of 300 ml shaker flasks. The shaker flasks were inoculated with an inoculating loop of cells from an agar plate containing homogeneous colonies of the microorganisms on the plate (the purity of the isolates was confirmed by microscopic examination. The isolates had been maintained on agar plates under an atmosphere of methane and air having a 1:1 v/v gas ratio which had been transferred evey two weeks. The gaseous phase of the inoculated flasks was then replaced with a gas mixture comprised of methane and air having a ratio of 1:1 on a v/v basis. The inoculated flasks were sealed air tight and were incubated on a rotary shaker of orbital radius 2.5 cm at 250 rpm and at 30° C. for two days until turbidity in the medium had developed.
The cells were harvested by centrifugation at 10,000×g. at 4° C. for 30 minutes. The cell pellet was washed twice with a 0.15 M phosphate buffer at a pH of 7.0 (containing 0.002 M MgCl2). The washed cells were then suspended in a 0.15 M phosphate buffer at pH 7.0.
A 0.5 ml sample of each washed cell suspension (2 mg cells) was put into 10 ml vials at 4° C. which were sealed with a rubber cap. The gaseous phase of the vials was removed with vacuum and then was replaced with a gas mixture of the oxidative substrate (e.g., methane) and oxygen at a 1:1 v/v ratio. The vials were then incubated at 30 ° C. on a rotary shaker at 300 rpm. Samples of product (3 μl) were withdrawn periodically with a microsyringe and the products were analyzed by gas chromatography (ionization flame detector column).
The newly discovered and isolated microorganism strains of the present invention were each grown aerobically in the presence of methane in the manner described above. The methane-grown microbial cells were then washed, recovered and put to use in oxidizing an oxidative substrate by the procedure described above except in the case of a liquid substrate 10 μl of the substrate were used.

[2] = tested on: Methylobacter vinelandii (CRL M5Y) NRRL B-11,218; experiment: Oxidation by washed cell suspensions of methane-grown cells; conditions: for Oxidative Conversion Rates: methane-grown washed cells, 30° C., methane to methanol, alkene to 1,2-epoxide
Summary of the method: (§1)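 Methane-grown cells (30 °C, 2 days) washed and suspended in 0.15 M phosphate pH 7.0; 2 mg cells incubated at 30 °C, 300 rpm under substrate gas:oxygen 1:1 (10 μl for liquid substrates). Products sampled periodically and measured by flame-ionisation gas chromatography.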

[3] = tested on: Methylobacter bovis (CRL 19 PM5) NRRL B-11,217; experiment: as above
Summary of the method: as §1

[4] = tested on: Methylomonas methanica (CRL M4P) NRRL B-11,205; experiment: as above
Summary of the method: as §1

[5] = tested on: Methylomonas albus (CRL M8Y) NRRL B-11,207; experiment: as above
Summary of the method: as §1

[6] = tested on: Methylococcus capsulatus (CRL 25 PM13) NRRL B-11,221; experiment: as above
Summary of the method: as §1

[7] = tested on: Methylosinus sporium (CRL 16 PM2) NRRL B-11,203; experiment: as above
Summary of the method: as §1

[8] = methane-grown washed cells, 30° C., methane to methanol, alkene to 1,2-epoxide
[9] = methane-grown cells, 2-butanol to 2-butanone

`C=CC` [Propylene] was tested, and the “Oxidative Conversion Rates” value [1] was 1.41, the “Oxidative Conversion Rates” value [2] was 1.9 μmole/hr/mg protein and the “Oxidative Conversion Rates” value [3, 8] was 2.2 μmole/hr/mg protein. The “Oxidative Conversion Rates” value [4, 8] was 3.8 μmole/hr/mg protein, the “Oxidative Conversion Rates” value [5, 8] was 2.5 μmole/hr/mg protein and the “Oxidative Conversion Rates” value [6, 8] was 1.2 μmole/hr/mg protein. The “Oxidative Conversion Rates” value [7, 8] was 3.2 μmole/hr/mg protein.
For `C` [Methane], the “Oxidative Conversion Rates” value [1] was 7.3, the “Oxidative Conversion Rates” value [2] was 0.9 μmole/hr/mg protein and the “Oxidative Conversion Rates” value [3] was 2.0. For the same compound, the “Oxidative Conversion Rates” value [4] was 2.3, the “Oxidative Conversion Rates” value [5] was 1.5 and the “Oxidative Conversion Rates” value [6] was 2.1. For the same compound, the “Oxidative Conversion Rates” value [7] was 1.0.
In the case of `CCC(C)O` (stereo not drawn) [2-Butanol], the “Conversion Rate to Ketone, 2 hrs.” value [2, 9] is reported as 2 μmole/2 mg protein, the “Conversion Rate to Ketone, 20 hrs.” value [2, 9] is reported as 18 μmole/2 mg protein and the “Conversion Rate to Ketone, 2 hrs.” value [4] is reported as 0.06 μmole/2 mg protein. For the same compound, the “Conversion Rate to Ketone, 20 hrs.” value [4] was 2 μmole/2 mg protein.
For `C=CC=C` [Butadiene], the “Oxidative Conversion Rates” value [1, 8] was 9.2 μmole/hr/mg protein, the “Oxidative Conversion Rates” value [3, 8] was 2.3 μmole/hr/mg protein and the “Oxidative Conversion Rates” value [4, 8] was 1.0 μmole/hr/mg protein. The “Oxidative Conversion Rates” value [5, 8] was 3.0 μmole/hr/mg protein, the “Oxidative Conversion Rates” value [6, 8] was 2.5 μmole/hr/mg protein and the “Oxidative Conversion Rates” value [7, 8] was 2.5 μmole/hr/mg protein.
